For five compounds, IC50 results are on record in patent US20240360165A1, “INHIBITORS OF CYCLIN DEPENDENT KINASE 7 (CDK7)” (Syros Pharmaceuticals, Inc., priority 2016, published 2024).

The test system of assay [1] is HCC70 cells. Briefly: Inhibition of proliferation of HCC70 cells (CyQUANT Direct Cell Proliferation Assay, 72 hour). Format: cell-based, human. The method, boiled down: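 Human triple-negative breast cancer HCC70 cells cultured at 37° C, 5% CO2, with compound for 72 hour. Anti-proliferative effect read by CyQUANT Direct Cell Proliferation Assay. Dinaciclib, a CDK inhibitor analog and triptolide served as positive controls.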

Assay [2] has as its system A673 cells. Briefly: Inhibition of proliferation of A673 cells (CyQUANT, 72 hour). Format: cell-based, human. Particulars: A673 cells, 72 hour, CyQUANT; read-out: Inhibition of Proliferation of A673 Cells (calculated IC50). Put shortly: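 Proliferation read-out by CyQUANT after a 72 h exposure, compounds spanning 4 μM–[…] in half-log steps. A673 cells cultured at 37° C under 5% CO2 in DMEM supplemented with 10% FBS plus 1 mM sodium pyruvate.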

The target in assay [3] is CDK9/Cyclin T1 complex (Homo sapiens, UniProt P50750). Briefly: CDK9 inhibition assay (Caliper/LabChip EZ Reader kinase assay). It counts as biochemical. Particulars: Table 1, CDK9/Cyclin T1 8 nM, ATP 2 mM, 15 min at 27° C. Put shortly: (§1)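 Activity read as fluorescent peptide conversion on a LabChip EZ Reader. For CDK2/Cyclin E1 (0.5 nM), substrate was 5-FAM-CDK7tide (2 μM) with 2 mM MgCl2; for CDK9/Cyclin T1 (8 nM), 5-FAM-CDK9tide (2 μM) with 10 mM MgCl2.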
CDK9/Cyclin T1 complex, sequence (P50750 whole entry, species assumed): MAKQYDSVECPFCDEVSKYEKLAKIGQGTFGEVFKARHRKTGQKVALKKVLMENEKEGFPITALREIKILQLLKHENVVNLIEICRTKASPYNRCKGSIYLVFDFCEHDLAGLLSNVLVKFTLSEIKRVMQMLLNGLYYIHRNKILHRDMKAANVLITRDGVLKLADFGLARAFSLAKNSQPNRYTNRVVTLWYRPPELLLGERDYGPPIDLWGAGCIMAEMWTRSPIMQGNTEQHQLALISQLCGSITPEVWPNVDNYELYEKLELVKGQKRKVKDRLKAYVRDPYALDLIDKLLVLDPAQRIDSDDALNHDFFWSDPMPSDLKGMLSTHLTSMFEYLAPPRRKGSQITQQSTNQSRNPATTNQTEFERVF
CDK9/Cyclin T1 complex, sequence (O60563 whole entry partner, species assumed): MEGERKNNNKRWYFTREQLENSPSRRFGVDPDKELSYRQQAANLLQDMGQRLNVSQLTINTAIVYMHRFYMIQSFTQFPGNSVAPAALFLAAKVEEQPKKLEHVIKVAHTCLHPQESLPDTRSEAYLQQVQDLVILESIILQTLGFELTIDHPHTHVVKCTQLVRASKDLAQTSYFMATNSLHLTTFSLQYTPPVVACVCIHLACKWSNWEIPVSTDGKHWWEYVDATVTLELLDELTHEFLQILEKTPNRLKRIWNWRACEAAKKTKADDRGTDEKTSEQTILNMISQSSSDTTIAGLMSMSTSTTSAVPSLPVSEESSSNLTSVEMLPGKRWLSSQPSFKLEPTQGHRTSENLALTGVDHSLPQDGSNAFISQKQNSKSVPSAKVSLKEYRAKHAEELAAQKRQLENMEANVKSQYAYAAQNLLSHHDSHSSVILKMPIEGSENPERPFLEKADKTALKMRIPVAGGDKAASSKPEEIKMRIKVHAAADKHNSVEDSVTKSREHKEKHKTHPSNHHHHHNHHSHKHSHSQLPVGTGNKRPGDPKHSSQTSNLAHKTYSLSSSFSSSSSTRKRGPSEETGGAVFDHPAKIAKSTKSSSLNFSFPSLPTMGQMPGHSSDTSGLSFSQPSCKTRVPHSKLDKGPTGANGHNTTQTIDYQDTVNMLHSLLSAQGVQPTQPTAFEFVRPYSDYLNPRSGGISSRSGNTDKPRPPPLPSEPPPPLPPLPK

The target of assay [4] is CDK2/Cyclin E1 complex (Homo sapiens, UniProt P24941). Briefly: CDK2 inhibition assay (Caliper/LabChip EZ Reader kinase assay). Format: biochemical. Particulars: Table 1, CDK2/Cyclin E1 0.5 nM, ATP 2 mM, 35 min at 27° C. Put shortly:
as §1

Assay [5] addresses CDK7/Cyclin H/MAT1 complex (Homo sapiens, UniProt P50613). Briefly: CDK7 inhibition assay (Caliper/LabChip EZ Reader kinase assay). Conditions: Table 1, CDK7/Cyclin H/MAT1 6 nM, ATP 2 mM, 35 min at 27° C. Format: biochemical. Put shortly:
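A Perkin Elmer Caliper/LabChip EZ Reader (Waltham, MA) platform served as the basis for this CDK7 kinase inhibition assay. The work was carried out by Biortus Biosciences, located in Jiangyin, Jiangsu Province, P.R. of China. Each CDK studied had its own kinase assay, and compounds were evaluated for their ability to block CDK7 activity.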

Assay [6] concerns the target T1, CDK12 (aa686-1082)/Cyclin K complex (Homo sapiens, UniProt Q9NYV4).
T1 construct: CDK12 (aa686-1082)/Cyclin K complex
Briefly: CDK12 inhibition assay (Caliper/LabChip EZ Reader kinase assay). Conditions: Table 1, CDK12 (aa686-1082)/Cyclin K 50 nM, ATP 2 mM, 3 hr at 27° C. Format: biochemical.

[7] abbreviates: Homo sapiens, HCC70, 72 h, read-out: Inhibition of Proliferation of HCC70 Cells (calculated IC50).

pIC50: −log10 of the molar value. Read-outs that look alike come from different tables or passages of the source.

T1 sequence (Q9NYV4 686-1082, species assumed): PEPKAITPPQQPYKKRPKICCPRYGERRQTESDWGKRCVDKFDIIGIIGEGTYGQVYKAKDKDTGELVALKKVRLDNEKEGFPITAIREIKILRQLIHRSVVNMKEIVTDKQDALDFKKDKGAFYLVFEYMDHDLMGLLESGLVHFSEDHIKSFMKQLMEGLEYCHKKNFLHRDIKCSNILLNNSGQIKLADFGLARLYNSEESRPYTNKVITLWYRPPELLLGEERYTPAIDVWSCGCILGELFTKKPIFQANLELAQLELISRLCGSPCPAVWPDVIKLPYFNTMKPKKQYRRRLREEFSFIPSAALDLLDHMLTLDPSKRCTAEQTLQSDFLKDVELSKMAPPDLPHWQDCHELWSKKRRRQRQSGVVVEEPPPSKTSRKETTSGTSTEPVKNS
T1 sequence (O75909 whole entry partner, species assumed, the tested form may be a part): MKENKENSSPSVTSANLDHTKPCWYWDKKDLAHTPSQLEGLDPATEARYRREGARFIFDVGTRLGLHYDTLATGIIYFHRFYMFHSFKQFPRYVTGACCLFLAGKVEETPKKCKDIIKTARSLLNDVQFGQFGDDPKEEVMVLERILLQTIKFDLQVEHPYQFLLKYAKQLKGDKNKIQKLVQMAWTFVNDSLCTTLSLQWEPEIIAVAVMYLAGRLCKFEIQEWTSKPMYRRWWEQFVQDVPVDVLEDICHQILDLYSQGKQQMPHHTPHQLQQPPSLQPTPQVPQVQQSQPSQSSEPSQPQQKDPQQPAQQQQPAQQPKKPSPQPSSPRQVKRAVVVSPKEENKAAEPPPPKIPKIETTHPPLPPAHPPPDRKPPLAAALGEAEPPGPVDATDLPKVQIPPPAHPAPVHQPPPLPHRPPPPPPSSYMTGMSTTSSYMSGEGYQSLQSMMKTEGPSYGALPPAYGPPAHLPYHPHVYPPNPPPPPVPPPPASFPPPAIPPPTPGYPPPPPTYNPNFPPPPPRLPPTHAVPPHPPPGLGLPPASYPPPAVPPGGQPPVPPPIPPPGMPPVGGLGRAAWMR
CDK7/Cyclin H/MAT1 complex, sequence (P50613 whole entry, species assumed): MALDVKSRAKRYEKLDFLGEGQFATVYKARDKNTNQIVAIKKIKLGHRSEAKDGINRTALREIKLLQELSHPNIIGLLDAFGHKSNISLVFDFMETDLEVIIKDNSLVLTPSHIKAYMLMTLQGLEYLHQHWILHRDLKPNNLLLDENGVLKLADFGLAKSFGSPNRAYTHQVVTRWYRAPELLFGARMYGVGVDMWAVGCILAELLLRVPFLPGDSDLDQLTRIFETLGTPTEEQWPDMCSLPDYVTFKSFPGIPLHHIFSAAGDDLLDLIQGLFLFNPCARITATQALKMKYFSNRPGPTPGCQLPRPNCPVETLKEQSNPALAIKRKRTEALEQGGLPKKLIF
CDK7/Cyclin H/MAT1 complex, sequence (P51946 whole entry partner, species assumed): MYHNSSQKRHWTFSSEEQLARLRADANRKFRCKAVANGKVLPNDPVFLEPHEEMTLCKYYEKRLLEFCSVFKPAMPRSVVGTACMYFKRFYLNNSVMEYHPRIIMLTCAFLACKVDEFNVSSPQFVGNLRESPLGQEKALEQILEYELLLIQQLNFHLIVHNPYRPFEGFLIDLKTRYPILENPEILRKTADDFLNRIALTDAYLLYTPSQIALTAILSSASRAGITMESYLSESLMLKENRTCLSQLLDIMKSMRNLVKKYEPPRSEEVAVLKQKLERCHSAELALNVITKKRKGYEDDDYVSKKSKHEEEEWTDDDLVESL
CDK7/Cyclin H/MAT1 complex, sequence (P51948 whole entry partner, species assumed): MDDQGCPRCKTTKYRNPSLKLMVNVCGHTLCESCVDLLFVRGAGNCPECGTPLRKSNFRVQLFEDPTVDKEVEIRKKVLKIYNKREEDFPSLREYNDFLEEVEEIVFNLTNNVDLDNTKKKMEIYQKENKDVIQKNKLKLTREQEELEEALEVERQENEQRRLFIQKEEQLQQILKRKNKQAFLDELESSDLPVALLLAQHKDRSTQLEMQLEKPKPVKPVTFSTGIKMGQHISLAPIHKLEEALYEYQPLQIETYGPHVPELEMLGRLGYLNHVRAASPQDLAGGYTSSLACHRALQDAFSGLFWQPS

On to `Cn1ccc(-c2ccc3c(-c4nc(N[C@H]5CCCNC5)ncc4C(F)(F)F)c[nH]c3c2)n1` [Compound 303, 4-[6-(1-methylpyrazol-3-yl)-1H-indol-3-yl]-N-[(3S)-3-piperidyl]-5-(trifluoromethyl) pyrimidin-2-amine], for which the pIC50 in assay [1] (setting [7]) was 6.00 to 7.00; in assay [2], 5.30 to 6.70; in assay [3], 5.30 to 6.70; in assay [3] (listed as 113), < 5.30; in assay [4], 5.30 to 6.70; in assay [4] (listed as 113) it was < 5.30. The pIC50 in assay [5] is > 7.70; in assay [5] (listed as 113), 6.70 to 7.70; in assay [6] it was 5.30 to 6.70; in assay [6] (listed as 113), 5.30 to 6.70.

`O=C(O)c1ccc2c(-c3nc(N[C@H]4CCCNC4)ncc3C(F)(F)F)c[nH]c2c1` [Compound 306, 3-[2-[[(3S)-3-piperidyl]amino]-5-(trifluoromethyl)pyrimidin-4-yl]-1H-indole-6-Carboxylic acid]: the pIC50 is 6.00 to 7.00 in assay [1] (setting [7]); 6.70 to 7.70 in assay [2]; < 5.30 in assay [3]; 5.30 to 6.70 in assay [3] (listed as 114); 5.30 to 6.70 in assay [4]; 5.30 to 6.70 in assay [4] (listed as 114). In addition, the pIC50 in assay [5] was 6.70 to 7.70; in assay [5] (listed as 114), 6.70 to 7.70; in assay [6], 5.30 to 6.70; in assay [6] (listed as 114), 5.30 to 6.70.

With `O=c1[nH]cc(-c2ccc3c(-c4nc(N[C@H]5CCCNC5)ncc4C(F)(F)F)c[nH]c3c2)c(=O)[nH]1` [Compound 333, 5-[3-[2-[[(3S)-3-piperidyl]amino]-5-(trifluoromethyl)pyrimidin-4-yl]-1H-indol-6-yl]-1H-pyrimidine-2,4-dione], the pIC50 is 5.30 to 6.00 in assay [1] (setting [7]); 5.30 to 6.70 in assay [2]; < 5.30 in assay [3]; < 5.30 in assay [3] (listed as 139); < 5.30 in assay [4]; < 5.30 in assay [4] (listed as 139). Moreover, the pIC50 was > 7.70 in assay [5], 6.70 to 7.70 in assay [5] (listed as 139), 5.30 to 6.70 in assay [6] and < 5.30 in assay [6] (listed as 139).

On to `O=C(c1cccc(-c2ccc3c(-c4nc(N[C@H]5CCCNC5)ncc4C(F)(F)F)c[nH]c3c2)c1)N1CCCC1` [Compound 340, [3-[3-[2-[[(3S)-3-piperidyl]amino]-5-(trifluoromethyl)pyrimidin-4-yl]-1H-indol-6-yl]phenyl]-pyrrolidin-1-yl-methanone], for which the pIC50 in assay [1] (setting [7]) is 5.30 to 6.00; in assay [2], 5.30 to 6.70; in assay [3] it was 5.30 to 6.70; in assay [3] (listed as 140) it was < 5.30; in assay [4], 5.30 to 6.70; in assay [4] (listed as 140), < 5.30. The pIC50 in assay [5] was 6.70 to 7.70; in assay [6], 5.30 to 6.70; in assay [6] (listed as 140) it was < 5.30.

Turning to `FC(F)(F)c1cnc(N[C@H]2CCCNC2)nc1-c1c[nH]c2cc(-c3cccc(Oc4ccccc4)c3)ccc12` [Compound 341, 4-[6-(3-phenoxyphenyl)-1H-indol-3-yl]-N-[(3S)-3-piperidyl]-5 (trifluoromethyl) pyrimidin-2-amine], the pIC50 is 5.30 to 6.00 in assay [1] (setting [7]); > 7.00 in assay [1] (listed as 141, read-out: Inhibition of Proliferation of HCC70 Cells (calculated IC50)); > 7.70 in assay [2]; < 5.30 in assay [3]; 5.30 to 6.70 in assay [3] (listed as 141); < 5.30 in assay [4]. The pIC50 in assay [4] (listed as 141) was 5.30 to 6.70; in assay [5] it was 5.30 to 6.70; in assay [5] (listed as 141), > 7.70; in assay [6], < 5.30; in assay [6] (listed as 141) it was 5.30 to 6.70.
